From patent publication US20180030093A1, “SELF-ASSEMBLING ULTRASHORT ALIPHATIC CYCLIC PEPTIDES FOR BIOMEDICAL APPLICATIONS” (Agency for Science, Technology and Research, priority 2015, published 2018)
Entries after “also recorded” stand apart in the source; their conditions may differ. Non-standard residues stand in square brackets, D forms with d. Residues, ends and D or L forms follow the SMILES beside them.

What was measured:
[1] = Stimuli response of gelation to salt (1× PBS); assay type: physicochemical; details: 5 mg/mL in 1× PBS, after vortexing
Description: Our previous studies on the parent peptide Ac-LIVAGK-NH2 have shown stimuli responsive behaviour to salt, which allows to reduce the minimum gelation concentration by 50%. […] For this purpose, cLK6 was dissolved in 9 parts of water and afterwards 1 part of 10× PBS solution was added.

[2] = Gelation / self-assembly in water; assay type: physicochemical
Description: (§1) In order to determine the minimum gelation concentration in water, the cyclic peptides were attempted to be dissolved in MilliQ water.
(§2) In order to introduce a charged amino acid residue cLK6 was synthesized and its ability to form hydrogels was investigated. For this purpose cLK6 was dissolved at a concentration of 10 mg/mL in water.

[3] = Solubility of the cyclic peptides in MilliQ water
Description: as §1, §2

[4] = stimuli responsive behaviour to salt; applicant's previous studies; cited from earlier work

Molecule: CC[C@H](C)[C@@H]1NC(=O)[C@@H](CC(C)C)NC(=O)[C@H](CCCCN)NC(=O)CNC(=O)[C@H](C)NC(=O)[C@@H](C(C)C)NC1=O [cLK6, cLIVAGK] (cyclo([dL]I[dV]AGK))
- gel formation in salt solution [1]: only peptide aggregation, resulting in precipitation
- gel formation ([2]; 5 mg/mL in water, prepared in the same way, overnight): clear hydrogel was formed
- gel formation ([2]; 10 mg/mL in water, heated at 60° C., then standing at room temperature): opaque sol gel was formed
- gel formation ([2]; peptide concentration further reduced below 5 mg/mL in water): no hydrogel formation
- solubility in water at 10 mg/mL ([3]; 10 mg/mL in water): full solubility was only achieved, when the peptide solution was heated at 60 °C for about 2 h

Molecule: CC[C@H](C)[C@@H]1NC(=O)[C@@H](CC(C)C)NC(=O)[C@H](CO)NC(=O)CNC(=O)[C@H](C)NC(=O)[C@@H](C(C)C)NC1=O [cLS6, cLIVAGS] (cyclo([dL]I[dV]AGS))
- self-assembly in water ([2]; dissolved in hexafluoroisopropanol (HFIP) and dropped slowly into water): gelatinous “precipitate” is formed; also recorded: still displays self-assembling properties
- solubility in water ([3]; MilliQ water): low solubility; also recorded: limited water solubility

Molecule: Ac-LIVAGK-NH2 [linear parent ultrashort peptide of cLK6, previously reported by the inventors]
- reduction of the minimum gelation concentration by salt [4]: 50%
